In article PMC8037182, “Solvothermal Synthesis of Multiple Dihydropyrimidinones at a Time as Inhibitors of Eg5” (Molecules, 2021):

How the values were obtained:
[1] = test system: Hela cell line; assay: Cytotoxicity MTS assay, Hela cell line; type: cell-based; conditions: for OD490 value, Mean / OD490 value, Well 1 / OD490 value, Well 2 / OD490 value, Well 3: Hela cell line, MTS;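 for OD490 value, Mean: blank control wells received 0.025% DMSO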;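 for OD490 value, Well 1: blank control wells received 0.025% DMSO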;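 for OD490 value, Well 2: blank control wells received 0.025% DMSO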;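 for OD490 value, Well 3: blank control wells received 0.025% DMSO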
Method in brief: (§1)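 Cells seeded at 1000 per well, grown 24 h, then exposed to compound (0.5–100 µM final) for 24 h with 0.025% DMSO blank. MTS reagent added for 2 h at 37 °C, absorbance read at 490 nm; IC50 from non-linear regression of % viability versus concentration, three independent duplicate experiments.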

[2] = test system: Caco-2 cell line; assay: Cytotoxicity MTS assay, Caco-2 cell line; type: cell-based; conditions: for OD490 Mean / OD490 Well 1 / OD490 Well 2 / OD490 Well 3: Caco-2 cell line
Method in brief: as §1

CCOC(=O)c1[nH]c(C2NC(=O)NC(C)=C2C(=O)Nc2ccccc2OC)c(C(=O)OC)c1C (centres unmarked) [D3]
OD490 value, Mean ([1]; 0.5μM, first assay): 2.7753
OD490 value, Well 1 ([1]; 0.5μM, first assay): 2.9485
OD490 value, Well 2 ([1]; 0.5μM, first assay): 2.6032
OD490 value, Well 3 ([1]; 0.5μM, first assay): 2.7743
OD490 value, Mean ([1]; 0.5μM, second assay): 2.7117
OD490 value, Well 1 ([1]; 0.5μM, second assay): 2.7664
OD490 value, Well 2 ([1]; 0.5μM, second assay): 2.9230
OD490 value, Well 3 ([1]; 0.5μM, second assay): 2.4458
OD490 value, Mean ([1]; 0.5μM, third assay): 2.8303
OD490 value, Well 1 ([1]; 0.5μM, third assay): 2.8863
OD490 value, Well 2 ([1]; 0.5μM, third assay): 2.8745
OD490 value, Well 3 ([1]; 0.5μM, third assay): 2.7301
OD490 value, Mean ([1]; 1μM, first assay): 2.5355
OD490 value, Well 1 ([1]; 1μM, first assay): 2.6242
OD490 value, Well 2 ([1]; 1μM, first assay): 2.5242
OD490 value, Well 3 ([1]; 1μM, first assay): 2.4580
OD490 value, Mean ([1]; 1μM, second assay): 2.6019
OD490 value, Well 1 ([1]; 1μM, second assay): 2.7530
OD490 value, Well 2 ([1]; 1μM, second assay): 2.3014
OD490 value, Well 3 ([1]; 1μM, second assay): 2.7514
OD490 value, Mean ([1]; 1μM, third assay): 2.6769
OD490 value, Well 1 ([1]; 1μM, third assay): 2.6365
OD490 value, Well 2 ([1]; 1μM, third assay): 2.7412
OD490 value, Well 3 ([1]; 1μM, third assay): 2.6531
OD490 value, Mean ([1]; 10μM, first assay): 2.6047
OD490 value, Well 1 ([1]; 10μM, first assay): 2.6883
OD490 value, Well 2 ([1]; 10μM, first assay): 2.6311
OD490 value, Well 3 ([1]; 10μM, first assay): 2.4948
OD490 value, Mean ([1]; 10μM, second assay): 2.6182
OD490 value, Well 1 ([1]; 10μM, second assay): 2.7032
OD490 value, Well 2 ([1]; 10μM, second assay): 2.6012
OD490 value, Well 3 ([1]; 10μM, second assay): 2.5503
OD490 value, Mean ([1]; 10μM, third assay): 2.6419
OD490 value, Well 1 ([1]; 10μM, third assay): 2.7745
OD490 value, Well 2 ([1]; 10μM, third assay): 2.6563
OD490 value, Well 3 ([1]; 10μM, third assay): 2.4949
OD490 value, Mean ([1]; 25μM, first assay): 2.3973
OD490 value, Well 1 ([1]; 25μM, first assay): 2.3040
OD490 value, Well 2 ([1]; 25μM, first assay): 2.5337
OD490 value, Well 3 ([1]; 25μM, first assay): 2.3542
OD490 value, Mean ([1]; 25μM, second assay): 2.3999
OD490 value, Well 1 ([1]; 25μM, second assay): 2.5301
OD490 value, Well 2 ([1]; 25μM, second assay): 2.4698
OD490 value, Well 3 ([1]; 25μM, second assay): 2.1998
OD490 value, Mean ([1]; 25μM, third assay): 2.4241
OD490 value, Well 1 ([1]; 25μM, third assay): 2.5355
OD490 value, Well 2 ([1]; 25μM, third assay): 2.5124
OD490 value, Well 3 ([1]; 25μM, third assay): 2.2245
OD490 value, Mean ([1]; 50μM, first assay): 2.2890
OD490 value, Well 1 ([1]; 50μM, first assay): 2.3872
OD490 value, Well 2 ([1]; 50μM, first assay): 2.2920
OD490 value, Well 3 ([1]; 50μM, first assay): 2.1878
OD490 value, Mean ([1]; 50μM, second assay): 2.2189
OD490 value, Well 1 ([1]; 50μM, second assay): 2.3332
OD490 value, Well 2 ([1]; 50μM, second assay): 2.3089
OD490 value, Well 3 ([1]; 50μM, second assay): 2.0147
OD490 value, Mean ([1]; 50μM, third assay): 2.2950
OD490 value, Well 1 ([1]; 50μM, third assay): 2.4301
OD490 value, Well 2 ([1]; 50μM, third assay): 2.3354
OD490 value, Well 3 ([1]; 50μM, third assay): 2.1196
OD490 value, Mean ([1]; 100μM, first assay): 1.7776
OD490 value, Well 1 ([1]; 100μM, first assay): 1.7277
OD490 value, Well 2 ([1]; 100μM, first assay): 1.8895
OD490 value, Well 3 ([1]; 100μM, first assay): 1.7156
OD490 value, Mean ([1]; 100μM, second assay): 1.7632
OD490 value, Well 1 ([1]; 100μM, second assay): 1.6245
OD490 value, Well 2 ([1]; 100μM, second assay): 1.8996
OD490 value, Well 3 ([1]; 100μM, second assay): 1.7654
OD490 value, Mean ([1]; 100μM, third assay): 1.7923
OD490 value, Well 1 ([1]; 100μM, third assay): 1.6654
OD490 value, Well 2 ([1]; 100μM, third assay): 1.8247
OD490 value, Well 3 ([1]; 100μM, third assay): 1.8869
IC50 ([1]; MTS assay, 24 h exposure): 115 µM
OD490 Mean ([2]; 0.5μM, first assay): 0.6387
OD490 Well 1 ([2]; 0.5μM, first assay): 0.6262
OD490 Well 2 ([2]; 0.5μM, first assay): 0.6384
OD490 Well 3 ([2]; 0.5μM, first assay): 0.6515
OD490 Mean ([2]; 0.5μM, second assay): 0.7146
OD490 Well 1 ([2]; 0.5μM, second assay): 0.7283
OD490 Well 2 ([2]; 0.5μM, second assay): 0.7863
OD490 Well 3 ([2]; 0.5μM, second assay): 0.6291
OD490 Mean ([2]; 0.5μM, third assay): 0.6707
OD490 Well 1 ([2]; 0.5μM, third assay): 0.6256
OD490 Well 2 ([2]; 0.5μM, third assay): 0.6879
OD490 Well 3 ([2]; 0.5μM, third assay): 0.6985
OD490 Mean ([2]; 1μM, first assay): 0.6598
OD490 Well 1 ([2]; 1μM, first assay): 0.6405
OD490 Well 2 ([2]; 1μM, first assay): 0.6612
OD490 Well 3 ([2]; 1μM, first assay): 0.6777
OD490 Mean ([2]; 1μM, second assay): 0.6524
OD490 Well 1 ([2]; 1μM, second assay): 0.6596
OD490 Well 2 ([2]; 1μM, second assay): 0.7226
OD490 Well 3 ([2]; 1μM, second assay): 0.5749
OD490 Mean ([2]; 1μM, third assay): 0.7014
OD490 Well 1 ([2]; 1μM, third assay): 0.6954
OD490 Well 2 ([2]; 1μM, third assay): 0.6888
OD490 Well 3 ([2]; 1μM, third assay): 0.7201
OD490 Mean ([2]; 10μM, first assay): 0.6769
OD490 Well 1 ([2]; 10μM, first assay): 0.6754
OD490 Well 2 ([2]; 10μM, first assay): 0.6571
OD490 Well 3 ([2]; 10μM, first assay): 0.6982
OD490 Mean ([2]; 10μM, second assay): 0.7108
OD490 Well 1 ([2]; 10μM, second assay): 0.7146
OD490 Well 2 ([2]; 10μM, second assay): 0.7063
OD490 Well 3 ([2]; 10μM, second assay): 0.7114
OD490 Mean ([2]; 10μM, third assay): 0.7093
OD490 Well 1 ([2]; 10μM, third assay): 0.6912
OD490 Well 2 ([2]; 10μM, third assay): 0.7365
OD490 Well 3 ([2]; 10μM, third assay): 0.7003
OD490 Mean ([2]; 25μM, first assay): 0.6846
OD490 Well 1 ([2]; 25μM, first assay): 0.6410
OD490 Well 2 ([2]; 25μM, first assay): 0.7249
OD490 Well 3 ([2]; 25μM, first assay): 0.6880
OD490 Mean ([2]; 25μM, second assay): 0.6529
OD490 Well 1 ([2]; 25μM, second assay): 0.662
OD490 Well 2 ([2]; 25μM, second assay): 0.6871
OD490 Well 3 ([2]; 25μM, second assay): 0.6097
OD490 Mean ([2]; 25μM, third assay): 0.6888
OD490 Well 1 ([2]; 25μM, third assay): 0.6989
OD490 Well 2 ([2]; 25μM, third assay): 0.6784
OD490 Well 3 ([2]; 25μM, third assay): 0.6891
OD490 Mean ([2]; 50μM, first assay): 0.7773
OD490 Well 1 ([2]; 50μM, first assay): 0.7708
OD490 Well 2 ([2]; 50μM, first assay): 0.7874
OD490 Well 3 ([2]; 50μM, first assay): 0.7736
OD490 Mean ([2]; 50μM, second assay): 0.7093
OD490 Well 1 ([2]; 50μM, second assay): 0.7521
OD490 Well 2 ([2]; 50μM, second assay): 0.7258
OD490 Well 3 ([2]; 50μM, second assay): 0.6501
OD490 Mean ([2]; 50μM, third assay): 0.7169
OD490 Well 1 ([2]; 50μM, third assay): 0.6532
OD490 Well 2 ([2]; 50μM, third assay): 0.7354
OD490 Well 3 ([2]; 50μM, third assay): 0.7621
OD490 Mean ([2]; 100μM, first assay): 0.5588
OD490 Well 1 ([2]; 100μM, first assay): 0.5950
OD490 Well 2 ([2]; 100μM, first assay): 0.5357
OD490 Well 3 ([2]; 100μM, first assay): 0.5456
OD490 Mean ([2]; 100μM, second assay): 0.7013
OD490 Well 1 ([2]; 100μM, second assay): 0.7196
OD490 Well 2 ([2]; 100μM, second assay): 0.6757
OD490 Well 3 ([2]; 100μM, second assay): 0.7086
OD490 Mean ([2]; 100μM, third assay): 0.7231
OD490 Well 1 ([2]; 100μM, third assay): 0.7561
OD490 Well 2 ([2]; 100μM, third assay): 0.7145
OD490 Well 3 ([2]; 100μM, third assay): 0.6987
IC50 ([2]; MTS assay, 24 h exposure): > 150 µM
